Where two headings read alike, the source gives them in different places. Each block holds one molecule with its values, some of them ahead of it.
What was measured:
293-DR-GFP cells = experiment: DR-GFP assay, quantitation of HR efficiency in cells; assay type: cell-based, human; settings: for inhibitory activity in the cell-based HR (DR-GFP) assay relative to 1 and 8, in words: 24-hour incubation, FIG. 5a
Method: 293-DR-GFP cells were electroporated in Opti-MEM with 37.5 μg/ml pCBASce in 0.4 cm cuvettes at 325 V, 975 μF and seeded into 6-well plates with 2.5 ml complete DMEM+0.5% DMSO with compound and allowed to outgrow for 24 hours. Following outgrowth, cells were harvested and suspended in PBS with 1 μg/ml 7-aminoactinomycin D (7-AAD) and analyzed on a BD FACSCalibur flow cytometer. Dead and apoptotic cells were gated out based on size, shape, and 7-AAD staining and the fraction of GFP-positive cells among the population of live cells was determined.
The DR-GFP assay was used to test the ability of representative compounds to inhibit HR in human cells.^27 Briefly, cells containing the chromosomal DR-GFP reporter were transfected with a plasmid that expresses I-SceI, a rare-cutting endonuclease that makes a DSB within the DR-GFP cassette. Compounds were added at the time of transfection and the cells were outgrown for 24 hours. For longer outgrowth periods such as 48 hours, cells regained some HR activity. To overcome this technical limitation, the relatively early time point of 24 hours was selected to describe the in vivo effects of these compounds.

[1] = Stability on exposure to air at room temperature; assay type: physicochemical; settings: slowly oxidized over time to compound 8
Text: These experimental results signify that compound 7 and 1 are distinct compounds. Compound 7 was not stable when exposed to air at room temperature; instead, it slowly oxidized over time to compound 8 (Scheme 2). Additionally, some of the oxidized product 8 was always produced during the preparation of compound 7.

RAD51 [2] = biological target: T1, RAD51 (Homo sapiens, UniProt Q06609); experiment: Fluorescence polarization-based DNA binding assay (RAD51-ssDNA binding); assay type: biochemical; settings: for Emax: read-out: ssDNA binding Max effect; for influence on RAD51-ssDNA binding, in words: summary of Tables 2 and 3
T1 sequence (Q06609 1-339): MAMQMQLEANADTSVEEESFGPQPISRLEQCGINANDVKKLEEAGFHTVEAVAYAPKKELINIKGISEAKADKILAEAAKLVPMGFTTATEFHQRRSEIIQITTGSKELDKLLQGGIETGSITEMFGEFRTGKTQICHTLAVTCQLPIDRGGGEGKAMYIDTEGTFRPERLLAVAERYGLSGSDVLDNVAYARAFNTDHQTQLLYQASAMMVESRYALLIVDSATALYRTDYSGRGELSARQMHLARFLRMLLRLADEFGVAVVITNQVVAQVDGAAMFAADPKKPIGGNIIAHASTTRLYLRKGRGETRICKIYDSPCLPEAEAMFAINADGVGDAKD
Method: The fluorescence polarization-based DNA binding assay and purification of human RAD51 used for this assay was performed as previously described with a few modifications.^23 Reactions were carried out in black 384-well polystyrene plates. In each well, RAD51 protein was combined with reaction buffer and varying concentrations of compound in DMSO in an initial volume of 40 μl and incubated at 37° C. for 40 minutes. Then, 10 μl of reaction buffer containing fluorescently-labeled ssDNA substrate (5′-Alexa488-oligo-dT45) was added and the reaction incubated at 37° C. for another 40 minutes, after which the plate was read on a Tecan Infinite 200 Pro plate reader equipped with two sets of 485±25 nm/535±35 nm with parallel or perpendicularly-oriented polarization filters. In both steps of the reaction setup, buffer components were maintained at 20 mM HEPES-NaOH (pH 7.5), 2 mM ATP, 10 mM MgCl2, 0.1 mM TCEP-HCl (tris(2-carboxyethyl)phosphine), and 0.25 μM BSA. The final reaction contained 4% DMSO, 0.2 μM RAD51, 30 mM NaCl, 2% glycerol, and 2.22 nM ssDNA substrate. Compound IC50 values were obtained by least-squares regression fitting of appropriate linear, log, or sigmoid dose-response models to the data, with the standard error indicated. […]

RAD51 [3] = biological target: T1, RAD51; experiment: Gel-based D-loop assay; assay type: biochemical; settings: for IC50: read-out: D-Loops IC50
Method: Human RAD51 in reaction buffer was combined with compound in […] DMSO, incubated at 37° C. for 10 min, and then 1 μl of 5′-^32P-labeled 90-mer ssDNA (5′-[…]) with homology to the plasmid pRS306 ^34 was added and the reaction was incubated at 37° C. for an additional 5 minutes. 1 μl of supercoiled pRS306 was then added to the reaction and incubated at 37° C. for 20 minutes; at this point the reaction consisted of 25 mM HEPES-NaOH (pH 7.0), 1 mM ATP, 1 mM MgCl2, 1 mM DTT, 1.5 μM BSA, 4.5% DMSO, 0.5 μM RAD51, 11 mM NaCl, 1% glycerol, 20 nM ssDNA, and 5 nM pRS306. The reactions were de-proteinized with 0.8% SDS and 0.8 mg/ml proteinase K, mixed with gel loading buffer, and run on a 0.9% agarose/1×TAE gel, which was dried and exposed to a phosphor screen overnight and imaged on a Storm 860 PhosphorImager. Compound IC50 values were obtained by least-squares regression fitting of appropriate linear, log, or sigmoid dose-response models to the data, with the standard error indicated.
To improve upon the D-loop inhibitory activity, medicinal chemical studies were undertaken to optimize 8. First, different functional groups were appended to rings A and B as substituents, including alkyl groups of different sizes, electron withdrawing/donating groups, and hydrogen bond donor/acceptor groups. Next, replacement of the phenyl ring B with different heterocycles or other saturated/unsaturated rings was investigated in order to probe its role. For each of the prepared compounds, the gel-based D-loop assay and the microplate-based DNA binding assay were used to characterize the biochemical activities.

[4] = tested on: PC-3, Caov-3, SKOV3.ip1, Kuramochi, U2OS cell lines; experiment: Clonogenic survival of tumor cell lines after veliparib, olaparib or ionizing radiation; assay type: cell-based; settings: administered immediately after veliparib, present during clonogenic outgrowth, FIGS. 6a-f
Method: FIG. 6A PC-3 cell line treated with veliparib. FIG. 6B Caov-3 cell line treated with veliparib. FIG. 6C Caov-3 cell line treated with olaparib. FIG. 6D SKOV3.ip1 cell line treated with veliparib. FIG. 6E Kuramochi cell line treated with veliparib. FIG. 6F U2OS cell line treated with ionizing radiation (x-rays).
Because 9h inhibits HR-mediated repair of DSBs, the effect of 9h on the sensitization of cancer cells to PARP inhibition or radiation damage was investigated. […] 2.

RAD51 foci [5] = experiment: RAD51 cytological focus formation after irradiation; assay type: cell-based, human; settings: 6 hours post-irradiation
Method: Cells were grown on glass coverslips for two days prior to irradiation with X-rays at 1.5 Gy/min using a Philips RT250 Maxitron. Following 6 hours of outgrowth, the adherent cells were incubated in permeabilization buffer (20 mM HEPES-NaOH (pH 7.4), 50 mM NaCl, 3 mM MgCl2, 0.5% Triton X-100, 300 mM sucrose) for 10 minutes at room temperature and then fixed in ice-cold fixation buffer (3% paraformaldehyde, 3.4% sucrose in 1×PBS) for 10 minutes at room temperature. The coverslips were washed 3 times in PBS, incubated in blocking buffer (1% BSA in 1×PBS) for 30 minutes, incubated with rabbit anti-human RAD51 primary antibody (Pacific Immunology) at a 1:1000 dilution in blocking buffer for 18 hours at 4° C., washed 3 times in PBS, incubated with Alexa488-conjugated goat anti-rabbit IgG secondary antibody (Invitrogen) at a 1:1000 dilution in blocking buffer for 1 hour at room temperature, washed 3 times in PBS, air-dried, and mounted onto glass slides in Vectashield with DAPI H-1200 (Vector laboratories). Slides were viewed on a Zeiss Axio Imager.M1 epifluorescence microscope equipped with a CCD camera for acquiring images of at least 100 randomly-selected nuclei per test condition at a representative focal plane within the nuclear volume. Sub-nuclear RAD51 foci were quantified using ImageJ (NIH, Bethesda, Md.) using a custom macro set that automatically counts foci. […]

RAD51 foci [6] = settings: previously reported; cited from earlier work
RAD51 [7] = biological target: T1, RAD51; settings: while sparing ssDNA binding activity; cited from earlier work

stability when exposed to air at room temperature [1]: not stable
ssDNA binding IC50 (RAD51 [2]; Table 1, Stim = stimulator): Stim
Emax (RAD51 [2]; Table 1, cells marked ↑: compound stimulates RAD51-ssDNA binding): 47%
D-Loops Max inhibition effect (RAD51 [3]; Table 1): 17%
SMILES: COc1ccc2c(c1)NC(c1ccc(N(C)C)cc1)c1cccn1-2 (centres unmarked) [Compound 7, 4-(7-Methoxy-4,5-dihydropyrrolo[1,2-a][13]quinoxalin-4-yl)-N,N-dimethylaniline]
inhibitory activity in the cell-based HR (DR-GFP) assay relative to 1 and 8, in words (293-DR-GFP cells): comparable

Emax (RAD51 [2]; Table 2, cells marked ↑: compound stimulates RAD51-ssDNA binding): 2 ± 24%
influence on RAD51-ssDNA binding, in words (RAD51 [2]): almost no impact
D-Loops Max inhibition effect (RAD51 [3]; Table 2): 91 ± 2%
SMILES: CCNc1ccc(-c2nc3ccccc3n3cccc23)cc1 [Compound 9h, N-ethyl-4-(pyrrolo[1,2-a]quinoxalin-4-yl)aniline]
IC50 (293-DR-GFP cells; Homo sapiens, 24 hours post-transfection, FIG. 5b, read-out: IC50, inhibition of cellular HR): 0.3 ± 0.125 µM
inhibition of cellular HR (293-DR-GFP cells; at concentrations that did not inhibit RAD51 foci assembly): more than 90%
sensitization of cancer cell lines to veliparib, olaparib or irradiation (clonogenic survival) [4]: significantly sensitized
sensitization of cancer cell lines to veliparib, olaparib or irradiation (clonogenic survival) ([4]; listed as RI(dl)-2): significantly sensitizes
timely assembly of RAD51 into sub-nuclear foci in response to DNA damage (RAD51 foci [5]): did not inhibit

IC50 (RAD51 [2]; Table 3, Stim = stimulator): 96.9 ± 44.9 µM
Emax (RAD51 [2]; Table 3, cells marked ↓: compound inhibits RAD51-ssDNA binding): 82 ± 23%
influence on RAD51-ssDNA binding, in words (RAD51 [2]): modest effects
IC50 (RAD51 [3]; Table 3): 8.4 ± 3.4 µM
SMILES: Nc1ccc(-c2nc3cc(O)ccc3n3cccc23)cc1 [Compound 12f, 4-(4-Aminophenyl)pyrrolo[1,2-a]quinoxalin-7-ol]
inhibitory activity in the cell-based HR (DR-GFP) assay relative to 1 and 8, in words (293-DR-GFP cells): comparable or slightly less inhibitory activity

ssDNA binding IC50 (RAD51 [2]; Table 3, Stim = stimulator): Stim
Emax (RAD51 [2]; Table 3, cells marked ↑: compound stimulates RAD51-ssDNA binding): 34 ± 32%
influence on RAD51-ssDNA binding, in words (RAD51 [2]): only weakly influenced
D-Loops Max inhibition effect (RAD51 [3]; Table 3): 91 ± 8%
IC50 (RAD51 [3]; Table 3): 9.8 µM
SMILES: CN(C)c1ccc(-c2nc3cc(O)ccc3n3cccc23)cc1 [Compound 12g, 4-(4-(Dimethylamino)phenyl)pyrrolo[1,2-a]quinoxalin-7-ol]
inhibitory activity in the cell-based HR (DR-GFP) assay relative to 1 and 8, in words (293-DR-GFP cells): comparable or slightly less inhibitory activity

SMILES: C[C@@]12CCC(=O)c3coc(c31)C(=O)c1cc3c(cc12)C(=O)C=CC3=O [Halenaquinone, halenaquinone]
formation of RAD51 foci in human cells following irradiation (RAD51 foci [6]): inhibit
inhibition of RAD51's HR activity in biochemical assays (RAD51 [7]): strongly inhibit

Reference: patent publication US10973819B2, “Small molecules inhibitors of RAD51” (The University of Chicago, priority 2016, dated 2021)
